How the values were obtained:
[1] = tested on: H3K27me3 in HCT116 cells; test: hmqChIP quantification of global H3K27me3 level after drug treatment, HCT116; assay type: cell-based, human; settings: 0.5 uM/5 uM, 40 h, anti-H3K27me3 ChIP
Description: (§1) A highly multiplexed experiment profiling global levels of three histone modifications in 96 samples: Two different cancer cell lines (human colon cancer HCT116, human osteosarcoma U2OS) were treated with 11 different drugs at 2 concentrations each (low, high) or DMSO as a control. Two replicates each (rep1, rep2) were performed of each treatment, totaling 96 samples. For U2OS, 9000 cells were seeded per 96-well, For HCT116, 6000 cells were seeded. After 24 h, drugs were added to each well, using the concentration specified in the following table:
(§2) After further growth for 40 h, the cell number was approx. 50 000 cells per well. […]
(§3) The final libraries were sequenced twice, to test the influence of sequencing two different random set of molecules on the quantification of global levels (that only scarcely covering the genome). The first time ˜1 Mio reads were sequenced in total for the four sub-pools (3 ChIP, 1 input), approximately 250 000 per sub-pool. […] The second time at total of 25 Mio reads were collected and either all of the reads were analyzed, or only a randomly selected subset of 1 mio reads. When all reads were analyzed, it corresponds to approx. 260,416 reads per sample. Input-normalized unique read count (INRCs) using DMSO controls as reference were calculated as described in Example 2 and plotted in a heatmap with grayscale and circle size reflecting the INRC.

[2] = tested on: H3K27me3 in mouse embryonic stem cells; settings: dataset according to Kumar and Elsässer 2019; cited from earlier work
[3] = tested on: H3K27ac; test: hmqChIP quantification of global H3K27ac level after drug treatment; assay type: cell-based, human; settings: HCT116 and U2OS cells, 0.5 uM/5 uM, 40 h, anti-H3K27ac ChIP
Description: as §1, §2, §3

[4] = tested on: H3K27me3 in U2OS cells; test: hmqChIP quantification of global H3K27me3 level after drug treatment, U2OS; assay type: cell-based, human; settings: 0.5 uM/5 uM, 40 h, anti-H3K27me3 ChIP
Description: as §1, §2, §3

In the case of `CCN(c1cc(C#CCN2CCOCC2)cc(C(=O)NCc2c(C)cc(C)[nH]c2=O)c1C)[C@H]1CC[C@H](N(C)CCOC)CC1` [EPZ011989], the “global H3K27me3 level (INRC relative to DMSO control)” value [1] is reported as “decrease H3K27me3”.
In the case of `CCOC(=O)CCNc1cc(N2CCc3ccccc3CC2)nc(-c2ccccn2)n1` [GSK-J4], the “H3K27me3 level of treated mESC used as calibration cell source” value [2] is listed as “increase H3K27me3 above physiologic levels”.
For `O=C(CCCCCCC(=O)Nc1ccccc1)NO` [SAHA], the “global H3K27ac level (INRC relative to DMSO control)” value [3] was “increase H3K27ac acetylation”.
With `CC(NC(=O)c1ccccc1/N=C/c1c(O)ccc2ccccc12)c1ccccc1` (centres unmarked) [Sirtinol] the “global H3K27ac level (INRC relative to DMSO control)” value [3] was “increase H3K27ac acetylation” and the “global H3K27me3 level (INRC relative to DMSO control)” value [4] was “decreases H3K27me3”.

From US20240011018A1, “MULTIPLEXED METHOD FOR ASSESSING GLOBAL OR GENOMIC LOCUS-SPECIFIC LEVELS OF CHROMATIN MODIFICATION” (Epigenica AB, priority 2020, published 2024)
